Results on nine compounds are retold here after paper PMC9268102, “Design, Synthesis and Biological Evaluation of 1,3,5-Triazine Derivatives Targeting hA1 and hA3 Adenosine Receptor” (Molecules, 2022).

Several values for one entry are separate records, joined by “and”; a condition that tells them apart may be missing. Equal entries are not always repeated. Where two headings read alike, the source gives them in different places.

Experiment [1] deals with T1, hA1 AR (Homo sapiens, UniProt P30542).
T1 construct: host or cells: CHO-A1 (CHO cells expressing hA1 AR)
T1 sequence (P30542 1-326): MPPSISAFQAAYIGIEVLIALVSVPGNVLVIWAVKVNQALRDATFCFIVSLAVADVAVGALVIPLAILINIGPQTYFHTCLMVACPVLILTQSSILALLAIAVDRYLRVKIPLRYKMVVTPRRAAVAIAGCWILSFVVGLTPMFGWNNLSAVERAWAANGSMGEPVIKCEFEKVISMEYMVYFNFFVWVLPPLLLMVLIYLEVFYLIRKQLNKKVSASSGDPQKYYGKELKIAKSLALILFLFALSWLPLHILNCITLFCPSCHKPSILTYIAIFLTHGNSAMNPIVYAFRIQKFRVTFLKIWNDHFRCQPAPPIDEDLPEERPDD
The settings on record: read-out: Ki at hA1AR; cited from earlier work.

The target in experiment [2] is T2, hA2A AR (Homo sapiens, UniProt P29274).
T2 construct: expressed in transfected cells; host or cells: Hela-A2A cell line
Conditions: cited from earlier work; for Ki: read-out: Ki at hA2AAR.

Experiment [3] concerns the target T3, hA3 AR (Homo sapiens, UniProt P0DMS8).
T3 sequence (P0DMS8 1-318): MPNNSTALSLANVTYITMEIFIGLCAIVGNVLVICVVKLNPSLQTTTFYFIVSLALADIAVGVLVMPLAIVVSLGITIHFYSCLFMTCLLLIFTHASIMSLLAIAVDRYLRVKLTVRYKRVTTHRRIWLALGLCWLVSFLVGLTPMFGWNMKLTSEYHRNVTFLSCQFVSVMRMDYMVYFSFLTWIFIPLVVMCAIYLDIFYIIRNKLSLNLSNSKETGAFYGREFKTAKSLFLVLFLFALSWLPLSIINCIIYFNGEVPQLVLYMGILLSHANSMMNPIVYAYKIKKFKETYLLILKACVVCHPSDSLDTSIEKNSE
On the set-up: expressed in transfected cells; host or cells: Hela-A3 cell line; method as in PMID 31280999, PMID 31780082, PMID 27531666. Conditions: read-out: Ki at hA3AR; cited from earlier work.

Experiment [4] has as its target T1, hA1 AR. Briefly: Radioligand competition binding assay at hA1 AR. The settings on record: [3H]DPCPX, CHO cells; for Percentage Inhibition (%) at 10 μM, hA1 AR / inhibition at 10 µM: 10 μM compound; for inhibition at 10 µM: read-out: Percentage Inhibition (%) at 10 μM, hA1 AR. As to the method: (§1) All the synthesized compounds were screened with radioligand binding assays at hARs. First, the percentage of inhibition was measured by treatment of each hAR subtype with 10 μM of each compound (Table 1).
(§2) hA1, hA2A, and hA3 AR competition binding experiments were carried out in a multiscreen GF/C 96-well plate (Millipore, Madrid, Spain) pretreated with binding buffer (Hepes 20 mM, NaCl 100 mM, MgCl2 10 mM, 2 U/mL adenosine deaminase, pH = 7.4 for hA1 AR; Tris-HCl 50 mM, EDTA 1 mM, MgCl2 10 mM, 2 U/mL adenosine deaminase, pH = 7.4 for hA2A AR; and Tris-HCl 50 mM, EDTA 1 mM, MgCl2 5 mM, 2 U/mL adenosine deaminase, pH = 7.4 for hA3 AR, respectively). In each well was incubated 5 µg of membranes from Euroscreen CHO-A1 cell line, 5µg of membranes from Hela-A2A cell line, or 30µg of membranes from Hela-A3 cell line and prepared in laboratory: 1 nM [^3H]-DPCPX (140 Ci/mmol, 1 mCi/Ml, Perkin Elmer NET974001MC) for hA1 AR; 1 nM [^3H]-ZM241385 (50 Ci/mmol, 1 mCi/mL, ARC-ITISA 0884) for hA2A AR; and 10 nM [^3H]-NECA (29.6 Ci/mmol, 1 mCi/mL, Perkin Elmer NET811250UC) for hA3 AR, respectively; and the compounds studied according to standard protocol. Non-specific binding was determined in the presence of R-PIA 10 µM (Sigma P4532) for hA1 AR; of NECA 50 µM (Sigma E2387) for hA2A AR; and of R-PIA 100 µM (Sigma P4532) for hA3 AR, respectively. The reaction mixture (Vt: 200 µL/well) was incubated at 25 °C for 60 min (hA1 AR), 30min (hA2A AR), or 180min (hA3 AR); whereafter it was filtered and washed four times (hA1 and hA2A AR) or six times (hA3 AR) with 250 μL wash buffer (Hepes 20 mM, NaCl 100 mM, MgCl2 10 mM pH = 7.4, for hA1 AR; Tris-HCl 50 mM, EDTA 1 mM, MgCl2 10 mM, pH = 7.4, for hA2A AR; and Tris-HCl 50mM pH = 7.4, for hA3 AR, respectively) before being measured in a microplate beta scintillation counter (MicrobetaTrilux, PerkinElmer, Madrid, Spain).
On the technique in general: In a radioligand displacement assay an active substance lowers the binding of a labelled ligand.

In another experiment the target is T4, hA2B AR (Homo sapiens, UniProt P29275).
T4 construct: host or cells: HEK-A2B (HEK-293T-A2B) cell line
T4 sequence (P29275 1-332): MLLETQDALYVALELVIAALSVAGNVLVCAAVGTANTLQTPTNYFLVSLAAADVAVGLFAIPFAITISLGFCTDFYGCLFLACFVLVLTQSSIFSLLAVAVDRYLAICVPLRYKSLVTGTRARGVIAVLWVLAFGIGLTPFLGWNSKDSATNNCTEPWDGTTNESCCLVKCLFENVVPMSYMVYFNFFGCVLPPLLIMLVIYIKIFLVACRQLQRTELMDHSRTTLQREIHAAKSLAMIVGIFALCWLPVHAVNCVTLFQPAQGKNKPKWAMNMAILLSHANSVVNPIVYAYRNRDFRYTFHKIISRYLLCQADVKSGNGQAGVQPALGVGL
As to the kind of experiment: Radioligand competition binding assay at hA2B AR. Conditions: 10 μM compound; [3H]DPCPX; HEK-293 cells; read-out: Percentage Inhibition (%) at 10 μM, hA2B AR. As to the method: as §1
hA2B AR competition binding experiments were carried out in a multiscreen GF/C 96-well plate. In each well was incubated 25 µg of membranes from Euroscreen HEK-A2B cell line and prepared in laboratory, 25 nM [^3H]-DPCPX (140 Ci/mmol, 1 mCi/mL, Perkin Elmer NET974001MC) and compounds studied according to standard protocol. Non-specific binding was determined in the presence of NECA 1000 µM (Sigma E2397). The reaction mixture (Vt: 250 µL/well) was incubated at 25°C for 30 min, 200 µL was transferred to GF/C 96-well plate (Millipore, Madrid, Spain), and pretreated with binding buffer (Tris-HCl 50 Mm, EDTA 1 mM, MgCl2 5 mM, Bacitracin […], adenosine deaminase 2 U/Ml, pH = 6.5). It was then filtered and washed four times with 250 μL wash buffer (Tris-HCl 50 mM, EDTA 1 mM, MgCl2 5 mM, pH = 6.5), before being measured in a microplate beta scintillation counter (MicrobetaTrilux, PerkinElmer, Madrid, Spain).

The target in experiment [5] is T2, hA2A AR. Briefly: Radioligand competition binding assay at hA2A AR. The settings on record: 10 μM compound; [3H]ZM241385; Hela cells; read-out: Percentage Inhibition (%) at 10 μM, hA2A AR. The method, then: as §1, §2
Experiment [6] deals with T3, hA3 AR. Briefly: Radioligand competition binding assay at hA3 AR. Conditions: [3H]NECA; for inhibition at 10 µM: read-out: Percentage Inhibition (%) at 10 μM, hA3 AR. Also on record: expressed in transfected cells; host or cells: Hela-A3 cell line. As to the method: as §1, §2

T2 sequence (P29274 whole entry): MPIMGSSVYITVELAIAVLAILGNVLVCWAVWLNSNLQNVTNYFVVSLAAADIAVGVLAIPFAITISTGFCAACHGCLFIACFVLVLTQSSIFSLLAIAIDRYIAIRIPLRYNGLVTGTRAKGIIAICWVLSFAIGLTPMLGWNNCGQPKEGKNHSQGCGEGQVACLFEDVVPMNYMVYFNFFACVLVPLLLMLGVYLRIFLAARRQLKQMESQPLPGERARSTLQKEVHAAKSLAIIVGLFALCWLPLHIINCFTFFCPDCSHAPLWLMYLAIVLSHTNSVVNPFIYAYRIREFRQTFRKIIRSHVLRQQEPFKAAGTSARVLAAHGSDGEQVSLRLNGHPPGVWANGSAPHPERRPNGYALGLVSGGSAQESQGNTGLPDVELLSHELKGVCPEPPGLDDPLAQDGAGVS

One may read the Ki as the equilibrium dissociation constant of an inhibitor or competing ligand from its target. As to `Cc1ccsc1/C=C/c1nc(N)nc(-c2ccccc2O)n1` [Compound 3], the Ki on hA1 AR [1] is 32.9 nM. The “Selectivity hA1/hA2AAR” value on hA2A AR [2] is given as 9.5.
As for `Nc1nc(NCCc2ccc(O)cc2)nc(Nc2nnc(-c3ccc(Cl)cc3)s2)n1` [Compound 5], the Ki at hA1 AR [1] was 520 nM; on hA2A AR [2], 44.6 nM. For the same compound, the “Selectivity hA1/hA2AAR” value on hA2A AR [2] is recorded as 11.66.
Take `CN1CCN(c2nc(-c3cccc(O)c3)nc3[nH]cnc23)CC1` [Compound 1]: the Ki on hA1 AR [1] was 6.8 nM; on hA3 AR [3], 6.3 nM.
As to `Nc1nc(NCCc2ccc(O)cc2)nc(Nc2nc(-c3ccc(F)cc3)cs2)n1` [Compound 6], at hA1 AR [1], the Ki is 478 nM. The “Selectivity hA1/hA2AAR” value at hA2A AR [2] is 319 and 318.9.
Consider `COc1cc(Cl)ccc1Nc1nc(N)nc(-c2oc3ccccc3c2C)n1` [Compound 4], for which the inhibitory constant (Ki) on hA1 AR [1] is 1440 nM. Moreover, at hA2A AR [2], the “Selectivity hA1/hA2AAR” value is listed as 2.94 and the Ki was 490 nM.
By inhibition is commonly meant the relative decrease from the control value, in per cent. For `Cc1cc(C)cc(Nc2nc(N)nc(-c3ccc(O)cc3)n2)c1` [Compound 9e, 4-{4-amino-6-[(3,5-dimethylphenyl)amino]-1,3,5-triazin-2-yl}phenol], the “Percentage Inhibition (%) at 10 μM, hA1 AR” value at hA1 AR [4] (10 µM) was determined as 96 ± 3%. In addition, the inhibition at 10 µM on hA1 AR [4] was above 95%; on hA2B AR, 42 ± 2%; at hA2A AR [5], 58 ± 3%; at hA3 AR [6] (10 μM compound), 92 ± 1%. For the same compound, the affinity at hA1 AR [4] corresponds to a Ki of 872 nM.
For `COc1cc(Nc2nc(N)nc(-c3ccc(O)cc3)n2)cc(OC)c1` [Compound 9b, 4-{4-amino-6-[(3,5-dimethoxyphenyl)amino]-1,3,5-triazin-2-yl}phenol], the inhibition at 10 µM at hA1 AR [4] came out at 99 ± 1%; at hA2B AR it was 62 ± 2%; on hA2A AR [5], 84 ± 4%; on hA3 AR [6] (10 μM compound) it was 93 ± 1%. On hA1 AR [4], this compound came in with a Ki of 69.7 nM.
Take `COc1ccc(Nc2nc(N)nc(-c3cc(F)c(O)c(F)c3)n2)cc1F` [Compound 11h, 4-{4-amino-6-[(3-fluoro-4-methoxyphenyl)amino]-1,3,5-triazin-2-yl}-2,6-difluorophenol]: on hA1 AR [4], the “Percentage Inhibition (%) at 10 μM, hA1 AR” value is “inactive”. Further, the inhibition at 10 µM came out at 88 ± 1% at hA1 AR [4], 66 ± 6% at hA2B AR, 26 ± 5% at hA2A AR [5] and 79 ± 1% at hA3 AR [6] (10 μM compound).
Take `Nc1nc(Nc2cccc(C(F)(F)F)c2)nc(-c2ccc(O)cc2)n1` [Compound 9d, 4-(4-amino-6-{[3-(trifluoromethyl)phenyl]amino}-1,3,5-triazin-2-yl)phenol]: the inhibition at 10 µM at hA1 AR [4] was 69 ± 2%; on hA2B AR, 74 ± 1%; at hA2A AR [5], 40 ± 5%; at hA3 AR [6] (10 μM compound), above 95%. Moreover, at hA3 AR [6] (10 μM compound, 10 µM), the “Percentage Inhibition (%) at 10 μM, hA3 AR” value is recorded as 95 ± 1%. Further, the Ki on hA3 AR [6] was determined as 1260 nM.
